Measurements: patent US20130310374A1, “Substituted Imidazoquinoline Derivatives” (PIRAMAL ENTERPRISES LIMITED`, priority 2010, published 2013)

Columns and labels:
K562 = experiment: Cytotoxicity propidium iodide assay, K562; assay type: cell-based; settings: Homo sapiens; K562 (CML), 48 hours treatment; read-out: IC50 Values in μM, C6a
Procedure, shortened: (§1)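 Cells were seeded at 3000/well and allowed 18-24 h at 37 °C/5% CO2, then exposed to a compound dilution series for 48 h. After a PBS wash, propidium iodide was added and plates were frozen overnight, thawed and read by fluorescence. Viability was normalised to untreated wells (100%), and IC50 came from the plotted percentages.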

MDA MB 231 = experiment: Cytotoxicity propidium iodide assay, MDA MB 231; assay type: cell-based; settings: Homo sapiens; MDA MB 231 (breast), 48 hours treatment; read-out: IC50 Values in μM, C3a
AsPC 1 = experiment: Cytotoxicity propidium iodide assay, AsPC 1; assay type: cell-based; settings: Homo sapiens, ASPC1; AsPC 1 (pancreatic), 48 hours treatment; read-out: IC50 Values in μM, C4b
BxPC3 = experiment: Cytotoxicity propidium iodide assay, BxPC3; assay type: cell-based; settings: Homo sapiens, BXPC-3; BxPC3 (pancreatic), 48 hours treatment; read-out: IC50 Values in μM, C4c
Procedure, shortened: as §1

BT 549 = experiment: Cytotoxicity propidium iodide assay, BT 549; assay type: cell-based; settings: Homo sapiens; BT 549 (breast), 48 hours treatment; read-out: IC50 Values in μM, C3c
Procedure, shortened: as §1

KU812 = experiment: Cytotoxicity propidium iodide assay, KU812; assay type: cell-based; settings: Homo sapiens; KU812 (CML), 48 hours treatment; read-out: IC50 Values in μM, C6d
Procedure: (§2) The assay was designed as in the reference, Anticancer Drugs, 2002, 13, 1-8, the disclosure of which is incorporated herein by reference for the teaching of the assay.
(§3) Cells from cell lines (ATCC) as mentioned in the table given below were seeded at a density of 3000 cells/well in a white opaque 96-well plate. Following incubation at 37° C./5% CO2 for a period of 18-24 hours, the cells were treated with various concentrations (stock solution was prepared in DMSO and subsequent dilutions were made in media as per ATCC guidelines) of the compounds of the present invention for a period of 48 hours. At the end of treatment, the culture medium was discarded, the cells were washed with 1×PBS and 200 μL of […] propidium iodide was added to each well. The plates were frozen at 70° C. overnight. For analysis, the plates were warmed to RT, allowed to thaw and were read in PoleStar fluorimeter with the fluorescence setting. The percentage of viable cells in the non-treated set of wells was considered to be 100 and the percentage viability following treatment was calculated accordingly. IC50 values were calculated from graphs plotted using these percentages. IC50 values for certain compounds of present invention are depicted in Table 1 and % Inhibition of certain compounds of present invention are depicted in Table 2.

PANC 1 = experiment: Cytotoxicity propidium iodide assay, PANC 1; assay type: cell-based; settings: Homo sapiens; PANC 1 (pancreatic), 48 hours treatment; read-out: IC50 Values in μM, C4a
Procedure: as §2, §3

MDA MB 468 = experiment: Cytotoxicity propidium iodide assay, MDA MB 468; assay type: cell-based; settings: Homo sapiens; MDA MB 468 (breast), 48 hours treatment; read-out: IC50 Values in μM, C3b
Procedure, shortened: as §1

A2780 = experiment: Cytotoxicity propidium iodide assay, A2780; assay type: cell-based; settings: Homo sapiens; A2780 (ovarian), 48 hours treatment; read-out: IC50 Values in μM, C1a
Procedure, shortened: as §1

T315I = experiment: Cytotoxicity propidium iodide assay, T315I; assay type: cell-based; settings: T315I (CML), 48 hours treatment; read-out: IC50 Values in μM, C6b
Procedure: as §2, §3

KCL22 = experiment: Cytotoxicity propidium iodide assay, KCL22; assay type: cell-based; settings: Homo sapiens, KCL-22; KCL22 (CML), 48 hours treatment; read-out: IC50 Values in μM, C6f
Procedure: as §2
as §3, with “The plates were frozen at 70° C. overnight.” left out

KCL22/SR = experiment: Cytotoxicity propidium iodide assay, KCL22/SR; assay type: cell-based; settings: Homo sapiens, KCL-22; KCL22/SR (CML), 48 hours treatment; read-out: IC50 Values in μM, C6e
Procedure: as §2, §3

MCF7 = experiment: Cytotoxicity propidium iodide assay, MCF7; assay type: cell-based; settings: Homo sapiens; MCF7 (breast), 48 hours treatment; read-out: IC50 Values in μM, C3d
Procedure, shortened: as §1

KU812/SR = experiment: Cytotoxicity propidium iodide assay, KU812/SR; assay type: cell-based; settings: Homo sapiens; KU812/SR (CML), 48 hours treatment; read-out: IC50 Values in μM, C6c
Procedure: as §2, §3

PC3 = experiment: Cytotoxicity propidium iodide assay, PC3; assay type: cell-based, human; settings: Homo sapiens, PC-3; PC3 (prostate), 48 hours treatment; read-out: IC50 Values in μM, C2a
Procedure, shortened: as §1

SMILES | IC50 (K562) | IC50 (MDA MB 231) | IC50 (AsPC 1) | IC50 (BxPC3) | IC50 (BT 549) | IC50 (KU812) | IC50 (PANC 1) | IC50 (MDA MB 468) | IC50 (A2780) | IC50 (T315I) | IC50 (KCL22) | IC50 (KCL22/SR) | IC50 (MCF7) | IC50 (KU812/SR) | IC50 (PC3)
COc1ccc(-n2c(=O)n(C)c3cnc4ccc(-c5cnc6ccccc6c5)cc4c32)cn1 [Example 20, 1-(6-Methoxypyridin-3-yl)-3-methyl-8-(quinolin-3-yl)-1H-imidazo[4,5-c]quinolin-2(3H)-one] | 0.1 µM | 0.37 µM | 0.4 µM | 0.45 µM | 1 µM | 1.99 µM | 0.25 µM | 0.47 µM | 0.07 µM | 1.96 µM | 2.86 µM | 1.09 µM | 0.55 µM | 5.44 µM | 0.27 µM
Cn1c(=O)n(CCN2CCOCC2)c2c3cc(-c4cnc5ccccc5c4)ccc3ncc21 [Example 70, 3-Methyl-1-(2-morpholinoethyl)-8-(quinolin-3-yl)-1H-imidazo[4,5-c]quinolin-2(3H)-one] | 0.7 µM | 0.7 µM | 1.6 µM | 0.7 µM | 2.1 µM | 4 µM | 1 µM | 1.1 µM | 0.3 µM | 2.56 µM | 2.17 µM | 1.57 µM | 0.7 µM | 3.38 µM | 0.9 µM
